How the values were obtained:
HCT116 cells = experiment: Combination studies, SRB assay, combination index (CalcuSyn); assay type: cell-based, human
ABCG2 = molecular target: T1, ABCG2 (Homo sapiens, UniProt Q9UNQ0); experiment: Impact of ABCG2 on cytotoxicity, SRB assay, MCF7-MX vs MCF7
T1 sequence (Q9UNQ0 1-655): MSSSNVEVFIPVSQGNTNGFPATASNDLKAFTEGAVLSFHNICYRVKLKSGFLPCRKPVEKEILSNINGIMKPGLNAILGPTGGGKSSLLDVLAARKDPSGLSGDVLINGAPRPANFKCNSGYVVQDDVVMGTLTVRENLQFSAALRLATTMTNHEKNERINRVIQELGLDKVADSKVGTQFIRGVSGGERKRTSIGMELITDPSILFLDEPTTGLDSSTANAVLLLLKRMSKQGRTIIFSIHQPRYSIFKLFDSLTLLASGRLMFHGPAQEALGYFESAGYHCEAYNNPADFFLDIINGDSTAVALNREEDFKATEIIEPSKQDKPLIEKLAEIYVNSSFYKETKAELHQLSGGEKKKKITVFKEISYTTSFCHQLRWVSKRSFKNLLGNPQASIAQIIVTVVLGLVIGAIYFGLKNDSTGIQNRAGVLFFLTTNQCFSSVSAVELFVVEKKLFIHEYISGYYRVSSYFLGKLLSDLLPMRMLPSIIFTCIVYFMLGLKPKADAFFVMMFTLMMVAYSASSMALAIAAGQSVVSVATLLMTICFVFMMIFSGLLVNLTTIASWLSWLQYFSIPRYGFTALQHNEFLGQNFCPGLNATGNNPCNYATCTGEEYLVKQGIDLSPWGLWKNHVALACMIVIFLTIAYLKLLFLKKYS

[1] = test system: HDAC from HeLa cell extract; experiment: Irreversible HDAC inhibition, HeLa nuclear extracts; assay type: biochemical
Procedure: FIG. 1. HDAC-C1A irreversible activity. A. […] inhibitory activity of HDAC-C1A was tested using HeLa nuclear extracts and compared to the negative (reversible) control HDAC-C1B. B Growth inhibitory effect of the different compounds in HCT-116 cells at indicated time and compared to growth inhibitory after 72 hours of incubation.
HSP90 protein expression was not altered (FIG. 2).

HCT116 tumours = experiment: Phospho-AKT levels in HCT116 tumours; assay type: in vivo, mice
RAD51 = RAD51 mRNA and protein expression; assay type: cell-based; settings: in vitro and in vivo
HCT116 xenograft = experiment: [18F]FLT-PET tumour uptake; assay type: in vivo, mice
Procedure: FIG. 6. [18F]-FLT uptake at 24 h and 48 h following a single injection I.P. of HDAC-C1A at 40 mg/kg in HCT116 xenograft model. A. PET/CT (bottom) and corresponding CT (top) images of the [18]-FLT uptake. […] The tumour is indicated by an arrow. B. Area under the curve data. The results are the mean+/−SEM of at least 4 animals per group.
FIG. 13. […] A. relative tumour volume to day 1. […] B. Corresponding body weights throughout the course of the experiment. […] C. Time activity curve represent [18F]FLT uptake over 60 minutes. Results are mean of at least 3 animals. D. Area under the curve, [18F]FLT uptake in the tumour over 60 minutes. E. NUV60, [18F]FLT uptake in the tumour at 60 minutes. […] The levels of total AKT are represented as loading control.
FIG. 16. [18F]FLT uptake following treatment with BEZ235 and in combination with HDAC-C1A after 48 hours in a HCT116 xenograft model. Mice were treated with either BEZ235 alone at 20 mg/kg/day for 2 days P.O., with 1HDACC1A at 20 mg/kg/day for 2 days I.P. or with a combination HDAC-C1A (20 mg/kg/day for 1 or 2 days)+BEZ-235 (20 mg/kg/day for 1 or 2 days). BEZ235 was given first and 30 min later, mice received an injection of HDAC-C1A. A. time activity curve represent [18F]FLT uptake over 60 minutes. Results are mean of at least 3 animals. B. Area under the curve, [18F]FLT uptake in the tumour over 60 minutes. C. NUV60, [18F]FLT uptake in the tumour at 60 minutes. D. Cross section (axial plane) of mice representative of different treatment cohorts. The top pictures show [18F]FLT uptake pictures (PET/CT), the bottom represent the corresponding CT scan. The arrows point the tumour.
We also assessed the potential of [^18F]fluorothymidine positron emission tomography ([^18F]FLT-PET) to measure early response to HDAC-C1A treatment in HCT116 xenograft bearing mice (FIG. 6). There was a 2-fold decrease in tumour [^18F]FLT uptake in animals treated continuously for 48 h compared to vehicle treated controls; the area under the normalized [^18F]FLT time versus activity curve was 117±6.9 before treatment and decreased to 106±5.5 (P=0.02) at 24 hours and 54±5 (P=0.0001) at 48 hours after initiating treatment (FIG. 6.B).
The efficacy of the combination HDAC-C1A (20 mg/kg/day) and BEZ235 ([…]) could be monitored with [^18F]FLT-PET in HCT116 tumour bearing mice as early as 24H-48H. There was a 1.7-fold decrease in tumour [^18F]FLT uptake in animals treated continuously for 24 h-48 h compared to vehicle treated controls; the area under the normalized [^18F]FLT time versus activity curve was 542±17 before treatment and decreased to 312±22 (P=0.0002) at 24-48 hours after initiating treatment (FIG. 16.B).

CC(/C=C/C(=O)NO)=C\c1ccc(NS(=O)(=O)c2ccc(N(CCCl)CCCl)cc2)cc1 [HDAC-C1A]
concentration of LY-294002 needed to synergise (HCT116 cells): 1 µM | lowest concentration synergising with rapamycin (HCT116 cells; ED50): ≥ 1.9 µM | fold resistance (GI50 ratio) MCF7-MX vs parental MCF7 (ABCG2; ABCG2 overexpressing): 2.8 fold | reversal of resistance by FTC in MCF7-MX cells (ABCG2; FTC, specific inhibitor of ABCG2): 5.2 fold | mode of HDAC inhibition [1]: irreversibly inhibited | P-AKT in tumours (HCT116 tumours; HDAC-C1A alone 20 mg/kg, 6 hours): up-regulation | P-AKT in tumours (HCT116 tumours; HDAC-C1A combined with API-2, 24 hours after single injection): still showed increased P-AKT | P-AKT in tumours (HCT116 tumours; combination regimen BEZ-235 + HDAC-C1A, 6 hours): No P-AKT was detected | RAD51 mRNA and protein expression (RAD51): did not increase | [18F]FLT-PET in comparison to control animals (HCT116 xenograft; 48 H, HDAC-C1A 40 mg/kg combined with API-2 1 mg/kg): unremarkable | area under the normalized [18F]FLT time versus activity curve (HCT116 xenograft; 24 hours after initiating treatment, 117±6.9 before treatment): 106±5.5 | area under the normalized [18F]FLT time versus activity curve (HCT116 xenograft; 48 hours after initiating treatment, 117±6.9 before treatment): 54±5 | fold decrease in tumour [18F]FLT uptake vs vehicle (HCT116 xenograft; HDAC-C1A 20 mg/kg/day combined with BEZ235 25 mg/kg/day, 24 h-48 h): 1.7 fold | area under the normalized [18F]FLT time versus activity curve (HCT116 xenograft; HDAC-C1A combined with BEZ235, 24-48 hours, 542±17 before treatment): 312±22 | fold decrease in tumour [18F]FLT uptake vs vehicle (HCT116 xenograft; treated continuously for 48 h, 40 mg/kg): 2 fold
